Laboratory results as given in ChEMBL document CHEMBL4396935, “l-like 3-deazaneplanocin analogues: Synthesis and antiviral properties” (Bioorg Med Chem Lett, 2019).
Values after ≈ are worked out from the molar mass of the structure shown. Active and inactive are the calls of the source. No cut-off for these calls is given here.

Experiments:
[1] = test system: Yellow fever virus; experiment: Antiviral activity against Yellow fever virus; assay type: functional, organism-based
[2] = test system: Punta Toro virus; experiment: Antiviral activity against Punta Toro virus; assay type: functional, organism-based
[3] = test system: H1N1 subtype; experiment: Antiviral activity against Influenza A virus (H1N1); assay type: functional
[4] = test system: Human adenovirus 5; experiment: Antiviral activity against Human adenovirus 5; assay type: functional, organism-based
[5] = test system: Lassa virus; experiment: Antiviral activity against Lassa virus; assay type: functional, organism-based; conditions: Mammarenavirus lassaense
[6] = test system: Rift Valley fever virus; experiment: Antiviral activity against Rift Valley fever virus; assay type: functional, organism-based
[7] = test system: West Nile virus; experiment: Antiviral activity against West Nile virus; assay type: functional, organism-based
[8] = test system: Venezuelan equine encephalitis virus; experiment: Antiviral activity against Venezuelan equine encephalitis virus; assay type: functional, organism-based
[9] = test system: Zika virus; experiment: Antiviral activity against Zika virus; assay type: functional, organism-based
[10] = test system: Chikungunya virus; experiment: Antiviral activity against Chikungunya virus; assay type: functional, organism-based
[11] = test system: Ebolavirus; experiment: Antiviral activity against Ebolavirus infected in African green monkey Vero cells by immunofluorescent assay; assay type: functional, organism-based; conditions: for EC50: Orthoebolavirus
[12] = test system: Junin virus; experiment: Antiviral activity against Junin virus; assay type: functional, organism-based; conditions: Mammarenavirus juninense
[13] = test system: Human betaherpesvirus 5; experiment: Antiviral activity against human cytomegalovirus; assay type: functional, organism-based
[14] = test system: Pichinde virus; experiment: Antiviral activity against Pichinde virus infected in African green monkey Vero cells assessed as reduction in virus induced cytopathic effect; assay type: functional, organism-based
[15] = test system: Tacaribe virus; experiment: Antiviral activity against Tacaribe virus infected in African green monkey Vero cells assessed as reduction in virus induced cytopathic effect; assay type: functional, organism-based; conditions: Mammarenavirus tacaribeense
[16] = test system: Japanese encephalitis virus; experiment: Antiviral activity against Japanese encephalitis virus; assay type: functional, organism-based
[17] = Cytotoxicity against African green monkey Vero cells; assay type: cell-based; conditions: chlorocebus sabaeus

Row | Structure (SMILES) | Activity [1] | Activity [2] | Activity [3] | Activity [4] | Activity [5] | Activity [6] | Activity [7] | Activity [8] | Activity [9] | Activity [10] | Activity [11] | Activity [12] | Activity [13] | Activity [14] | Activity [15] | Activity [16] | CC50 [17] | EC50 [11] | EC50 [14] | EC50 [15]
1 | Nc1nccc2c1ncn2[C@H]1C=C(CF)[C@H](O)[C@@H]1O | inactive | inactive | inactive | inactive | inactive | inactive | inactive | inactive | inactive | inactive | inactive | inactive | inactive | inactive | inactive | inactive |  |  |  | 
2 | Nc1nccc2c1ncn2[C@H]1C=C(CO)[C@H](O)[C@@H]1O |  |  | inactive | inactive | inactive |  |  |  |  | inactive |  | inactive | inactive |  |  | inactive | 12 to 85 µg/mL (≈ 45.8 to 324 µM) | 8.7 µg/mL (≈ 33.2 µM) | 0.9 µg/mL (≈ 3.43 µM) | 1.3 µg/mL (≈ 4.96 µM)
3 | NC(=O)c1nc(F)cnc1O [FAVIPIRAVIR] |  |  |  |  |  |  |  |  |  |  |  |  |  |  |  |  |  | 18.6 µg/mL (≈ 118 µM) |  | 
4 | Nc1ncc(Br)c2c1ncn2[C@H]1C=C(CO)[C@H](O)[C@@H]1O |  |  | inactive | inactive | inactive |  |  |  |  | inactive |  | inactive | inactive |  |  | inactive | 83 to 100 µg/mL (≈ 243 to 293 µM) | 4.2 µg/mL (≈ 12.3 µM) | > 100 µg/mL | > 100 µg/mL
5 | NC(=O)c1ncn([C@@H]2O[C@H](CO)[C@@H](O)[C@H]2O)n1 [RIBAVIRIN] |  |  |  |  |  |  |  |  |  |  |  |  |  |  |  |  |  |  | 12 µg/mL (≈ 49.1 µM) | 9.3 µg/mL (≈ 38.1 µM)
